Measured values as given in the NIST ThermoML archive (doi:10.1016/j.fluid.2006.11.005).
Numbers after ± are expanded uncertainties.

Assay: xn = mol fraction of the nth substance listed
Conditions: 101.33 kPa, Liquid

Q: For `ClC(Cl)Cl` [trichloromethane] + CCO, which mass density (288.15 K, x2 = 0) is on record?
A: 1498.08 ± 0.92 kg/m3

Q: What about the mass density (288.15 K, x2 = 0.0485) of the same compound?
A: 1472.17 ± 0.89 kg/m3

Q: And the mass density (288.15 K, x2 = 0.0997)?
A: 1444.69 ± 0.84 kg/m3

Q: And the mass density (288.15 K, x2 = 0.1993)?
A: 1389.44 ± 0.76 kg/m3

Q: What about the mass density (288.15 K, x2 = 0.2999) of the same compound?
A: 1331.01 ± 0.67 kg/m3

Q: And the mass density (288.15 K, x2 = 0.4002)?
A: 1269.36 ± 0.57 kg/m3

Q: And the mass density (288.15 K, x2 = 0.4984)?
A: 1204.89 ± 0.48 kg/m3

Q: What about the mass density (288.15 K, x2 = 0.5504) of the same compound?
A: 1168.93 ± 0.42 kg/m3

Q: What about the mass density (288.15 K, x2 = 0.6001) of the same compound?
A: 1133.49 ± 0.37 kg/m3

Q: What about the mass density (288.15 K, x2 = 0.6949) of the same compound?
A: 1062.09 ± 0.28 kg/m3

Q: And the mass density (288.15 K, x2 = 0.794)?
A: 981.537 ± 0.23 kg/m3

Q: What about the mass density (288.15 K, x2 = 0.8503) of the same compound?
A: 933.183 ± 0.29 kg/m3

Q: What about the mass density (288.15 K, x2 = 0.9001) of the same compound?
A: 888.356 ± 0.36 kg/m3

Q: What about the mass density (293.15 K, x2 = 0) of the same compound?
A: 1488.64 ± 0.91 kg/m3

Q: And the mass density (293.15 K, x2 = 0.0485)?
A: 1462.84 ± 0.87 kg/m3

Q: And the mass density (293.15 K, x2 = 0.0997)?
A: 1435.55 ± 0.83 kg/m3

Q: And the mass density (293.15 K, x2 = 0.1993)?
A: 1380.64 ± 0.74 kg/m3

Q: What about the mass density (293.15 K, x2 = 0.2999) of the same compound?
A: 1322.64 ± 0.65 kg/m3

Q: And the mass density (293.15 K, x2 = 0.4002)?
A: 1261.46 ± 0.56 kg/m3

Q: What about the mass density (293.15 K, x2 = 0.4984) of the same compound?
A: 1197.52 ± 0.46 kg/m3

Q: What about the mass density (293.15 K, x2 = 0.5504) of the same compound?
A: 1161.84 ± 0.41 kg/m3

Q: And the mass density (293.15 K, x2 = 0.6001)?
A: 1126.69 ± 0.36 kg/m3

Q: What about the mass density (293.15 K, x2 = 0.6949) of the same compound?
A: 1055.88 ± 0.27 kg/m3

Q: And the mass density (293.15 K, x2 = 0.794)?
A: 976.02 ± 0.24 kg/m3

Q: And the mass density (293.15 K, x2 = 0.8503)?
A: 927.998 ± 0.3 kg/m3

Q: What about the mass density (293.15 K, x2 = 0.9001) of the same compound?
A: 883.494 ± 0.36 kg/m3

Q: What about the mass density (298.15 K, x2 = 0) of the same compound?
A: 1479.15 ± 0.89 kg/m3

Q: And the mass density (298.15 K, x2 = 0.0485)?
A: 1453.46 ± 0.86 kg/m3

Q: What about the mass density (298.15 K, x2 = 0.0997) of the same compound?
A: 1426.28 ± 0.81 kg/m3

Q: What about the mass density (298.15 K, x2 = 0.1993) of the same compound?
A: 1371.77 ± 0.73 kg/m3

Q: What about the mass density (298.15 K, x2 = 0.2999) of the same compound?
A: 1314.2 ± 0.64 kg/m3

Q: What about the mass density (298.15 K, x2 = 0.4002) of the same compound?
A: 1253.5 ± 0.55 kg/m3

Q: What about the mass density (298.15 K, x2 = 0.4984) of the same compound?
A: 1190.08 ± 0.45 kg/m3

Q: And the mass density (298.15 K, x2 = 0.5504)?
A: 1154.69 ± 0.4 kg/m3

Q: What about the mass density (298.15 K, x2 = 0.6001) of the same compound?
A: 1119.83 ± 0.35 kg/m3

Q: What about the mass density (298.15 K, x2 = 0.6949) of the same compound?
A: 1049.61 ± 0.26 kg/m3

Q: What about the mass density (298.15 K, x2 = 0.794) of the same compound?
A: 970.455 ± 0.24 kg/m3

Q: What about the mass density (298.15 K, x2 = 0.8503) of the same compound?
A: 922.772 ± 0.31 kg/m3

Q: And the mass density (298.15 K, x2 = 0.9001)?
A: 878.595 ± 0.37 kg/m3

Q: What about the mass density (303.15 K, x2 = 0) of the same compound?
A: 1469.61 ± 0.88 kg/m3

Q: What about the mass density (303.15 K, x2 = 0.0485) of the same compound?
A: 1444.03 ± 0.84 kg/m3

Q: And the mass density (303.15 K, x2 = 0.0997)?
A: 1416.99 ± 0.8 kg/m3

Q: What about the mass density (303.15 K, x2 = 0.1993) of the same compound?
A: 1362.83 ± 0.72 kg/m3

Q: What about the mass density (303.15 K, x2 = 0.2999) of the same compound?
A: 1305.7 ± 0.63 kg/m3

Q: What about the mass density (303.15 K, x2 = 0.4002) of the same compound?
A: 1245.47 ± 0.54 kg/m3

Q: What about the mass density (303.15 K, x2 = 0.4984) of the same compound?
A: 1182.57 ± 0.44 kg/m3

Q: What about the mass density (303.15 K, x2 = 0.5504) of the same compound?
A: 1147.44 ± 0.39 kg/m3

Q: And the mass density (303.15 K, x2 = 0.6001)?
A: 1112.9 ± 0.34 kg/m3

Q: What about the mass density (303.15 K, x2 = 0.6949) of the same compound?
A: 1043.28 ± 0.25 kg/m3

Q: And the mass density (303.15 K, x2 = 0.794)?
A: 964.839 ± 0.25 kg/m3

Q: And the mass density (303.15 K, x2 = 0.8503)?
A: 917.5 ± 0.31 kg/m3

Q: And the mass density (303.15 K, x2 = 0.9001)?
A: 873.653 ± 0.38 kg/m3

Q: What about the mass density (308.15 K, x2 = 0) of the same compound?
A: 1460.03 ± 0.86 kg/m3

Q: And the mass density (308.15 K, x2 = 0.0485)?
A: 1434.55 ± 0.83 kg/m3

Q: What about the mass density (308.15 K, x2 = 0.0997) of the same compound?
A: 1407.64 ± 0.79 kg/m3

Q: And the mass density (308.15 K, x2 = 0.1993)?
A: 1353.83 ± 0.7 kg/m3

Q: What about the mass density (308.15 K, x2 = 0.2999) of the same compound?
A: 1297.12 ± 0.61 kg/m3

Q: And the mass density (308.15 K, x2 = 0.4002)?
A: 1237.37 ± 0.52 kg/m3

Q: And the mass density (308.15 K, x2 = 0.4984)?
A: 1174.99 ± 0.43 kg/m3

Q: What about the mass density (308.15 K, x2 = 0.5504) of the same compound?
A: 1140.19 ± 0.38 kg/m3

Q: What about the mass density (308.15 K, x2 = 0.6001) of the same compound?
A: 1105.9 ± 0.33 kg/m3

Q: And the mass density (308.15 K, x2 = 0.6949)?
A: 1036.89 ± 0.24 kg/m3

Q: And the mass density (308.15 K, x2 = 0.794)?
A: 959.165 ± 0.25 kg/m3

Q: What about the mass density (308.15 K, x2 = 0.8503) of the same compound?
A: 912.175 ± 0.32 kg/m3

Q: And the mass density (308.15 K, x2 = 0.9001)?
A: 868.659 ± 0.38 kg/m3

Q: And the mass density (313.15 K, x2 = 0)?
A: 1450.41 ± 0.85 kg/m3

Q: What about the mass density (313.15 K, x2 = 0.0485) of the same compound?
A: 1425.03 ± 0.81 kg/m3

Q: And the mass density (313.15 K, x2 = 0.0997)?
A: 1398.25 ± 0.77 kg/m3

Q: And the mass density (313.15 K, x2 = 0.1993)?
A: 1344.78 ± 0.69 kg/m3

Q: And the mass density (313.15 K, x2 = 0.2999)?
A: 1288.5 ± 0.6 kg/m3

Q: What about the mass density (313.15 K, x2 = 0.4002) of the same compound?
A: 1229.18 ± 0.51 kg/m3

Q: And the mass density (313.15 K, x2 = 0.4984)?
A: 1167.34 ± 0.42 kg/m3

Q: What about the mass density (313.15 K, x2 = 0.5504) of the same compound?
A: 1132.84 ± 0.37 kg/m3

Q: And the mass density (313.15 K, x2 = 0.6001)?
A: 1098.85 ± 0.32 kg/m3

Q: What about the mass density (313.15 K, x2 = 0.6949) of the same compound?
A: 1030.44 ± 0.24 kg/m3

Q: What about the mass density (313.15 K, x2 = 0.794) of the same compound?
A: 953.436 ± 0.26 kg/m3

Q: What about the mass density (313.15 K, x2 = 0.8503) of the same compound?
A: 906.798 ± 0.33 kg/m3

Q: What about the mass density (313.15 K, x2 = 0.9001) of the same compound?
A: 863.612 ± 0.39 kg/m3
